# Where a name gives a salt, the structure may show the parent alone. Read-outs that look alike come from different tables or passages of the source.
# How the values were obtained:
# [1] = test system: bloodstream forms of Trypanosoma brucei; assay: Resazurin cell viability assay, EC50 determinations against T. brucei; format: cell-based, T. b. brucei (strain 427)
# MRC5 cells = assay: Resazurin cell viability counter-screen, EC50 determinations against mammalian cells; format: cell-based, human; details: for EC50: read-out: EC50 vs. MRC5
# T. brucei [2] = test system: T. brucei
# T. brucei [3] = assay: microbe, parasite or virus in culture; details: Trypanosoma brucei, read-out: EC50 by direct counting of cell growth
# [4] = Trypanosoma brucei, 72 h, LOPAC hits (library screening), 3 days incubation, mean of 3 determinations weighted to standard error, read-out: EC50 vs. T. brucei
# [5] = Trypanosoma brucei, 72 h, read-out: EC50 vs. T. brucei
# [6] = Trypanosoma brucei, 72 h, read-out: EC50 of standard drugs against T. brucei
# [7] = read-out: EC50 of standard drugs against T. brucei
Compound,Selectivity (MRC5 cells),"EC50 (MRC5 cells; Homo sapiens, MRC5, 72 h) [nM]","EC50 [1, 5] [nM]",other results
CC[C@H](C)C(=O)O[C@H]1CCC=C2C=C[C@H](C)[C@H](CC[C@@H]3C[C@@H](O)CC(=O)O3)[C@H]21 [Mevastatin],2.2,2000 ± 360,–,"EC50 [1, 4]: 940 ± 50 nM"
O=C1c2c(O)ccc(O)c2C(=O)c2c(NCCNCCO)ccc(NCCNCCO)c21 [Mitoxantrone],46,110 ± 37,2.4 ± 0.2,–
N=C(N)c1ccc(OCCCCCOc2ccc(C(=N)N)cc2)cc1 [Pentamidine isethionate],3400,–,–,"Effect on T. brucei culture growth (T. brucei [2]): cytocidal effect; Time for cell density to drop below the limit of detection (1 × 10^3 cells ml−1) (T. brucei [2]): ≤ 40 h; EC99 (calculated/predicted from EC50 and Hill slope) [1]: 37 nM; EC50 [1, 6]: 8.1 ± 0.54 nM; EC50 [1, 7]: 8 nM"
O=c1[nH]c2ccccc2n1C1CCN(CCCC(c2ccc(F)cc2)c2ccc(F)cc2)CC1 [Pimozide],41,–,340 ± 19,–
CC(C)[C@H](CO)Nc1nc(Nc2cccc(Cl)c2)c2ncn(C(C)C)c2n1 [Purvalanol A],12,–,820 ± 55,–
CCN(CC)CCCC(C)Nc1c2ccc(Cl)cc2nc2ccc(OC)cc12 (stereo not drawn) [Quinacrine dihydrochloride],5.0,1900 ± 440,380 ± 13,–
"Br.CN1Cc2sccc2C(c2ccc(O)c(O)c2)C1 (stereo not drawn) [SKF 89145 hydrobromide, 4-(3,4-Dihydroxyphenyl)-6-methyl-4,5,6,7-tetrahydrothieno[2,3-c]pyridine HBr]",4.7,2900 ± 200,610 ± 44,–
C[n+]1cc2c3c(ccc2c2ccc4cc5c(cc4c21)OCO5)OCO3 [Sanguinarine chloride],5.8,1400 ± 350,240 ± 17,–
CCCCCCCCCCCCC/C=C/[C@@H](O)[C@@H](N)CO [Sphingosine],5.7,4600 ± 2500,820 ± 78,–
Cc1ccc(C(=O)Nc2ccc(S(=O)(=O)O)c3cc(S(=O)(=O)O)cc(S(=O)(=O)O)c23)cc1NC(=O)c1cccc(NC(=O)Nc2cccc(C(=O)Nc3cc(C(=O)Nc4ccc(S(=O)(=O)O)c5cc(S(=O)(=O)O)cc(S(=O)(=O)O)c45)ccc3C)c2)c1 [Suramin hexasodium],>710,> 50000,< 70,"EC50 [1, 6]: 20.1 ± 1.1 nM; EC50 ([1]; read-out: EC50 vs. T. brucei): 68 ± 3.5 nM; Selectivity / specificity for T. brucei over human fibroblasts (MRC5 cells): > 700 fold"
CC(=O)O[C@H]1C(=O)[C@@]2(C)[C@H]([C@H](OC(=O)c3ccccc3)[C@]3(O)C[C@H](OC(=O)[C@H](O)[C@@H](NC(=O)c4ccccc4)c4ccccc4)C(C)=C1C3(C)C)[C@]1(OC(C)=O)CO[C@@H]1C[C@@H]2O [Taxol],2,6.6 ± 9.8,3.3 ± 0.071,–
CC[C@]1(O)C[C@@H]2CN(CCc3c([nH]c4ccccc34)[C@@](C(=O)OC)(c3cc4c(cc3OC)N(C)[C@H]3[C@@](O)(C(=O)OC)[C@H](OC(C)=O)[C@]5(CC)C=CCN6CC[C@]43[C@@H]65)C2)C1.O=S(=O)(O)O [Vinblastine sulfate salt],8.3,–,–,EC50 ([1]; read-out: EC50 vs. T. brucei): 94 ± 6 nM; EC50 (MRC5 cells): 780 ± 910 nM
CC[C@]1(O)C[C@H]2CN(CCc3c([nH]c4ccccc34)[C@@](C(=O)OC)(c3cc4c(cc3OC)N(C=O)[C@H]3[C@@](O)(C(=O)OC)[C@H](OC(C)=O)[C@]5(CC)C=CCN6CC[C@]43[C@@H]65)C2)C1 [Vincristine sulfate],0.02,0.6 ± 1,–,"EC50 [1, 4]: 30 ± 1 nM"
"NCCCC(N)(C(=O)O)C(F)F (stereo not drawn) [eflornithine, difluoromethylornithine]",–,–,–,"EC50 (T. brucei [3]): 17.1 ± 0.1 µM; Time after which cell growth was arrested (T. brucei [2]; 10 × EC50): 30 h; Effect on T. brucei culture growth (T. brucei [2]; 10 × EC50, 3 days): cytostatic effect; EC99 (calculated from EC50 and Hill slope) [1]: 77 µM; EC50 [1, 6]: 22400 ± 1100 nM; EC50 [1, 7]: 22000 nM"
"Dequalinium analogue, C-14 linker",14,–,–,EC50 ([1]; read-out: EC50 vs. T. brucei): 70 ± 4.6 nM
Oligomycin A,120,–,–,EC50 ([1]; read-out: EC50 vs. T. brucei): 150 ± 3.1 nM; Selectivity / specificity for T. brucei over human fibroblasts (MRC5 cells): greater than 100 fold

# — PMC3025325, “Identification of a κ-opioid agonist as a potent and selective lead for drug development against human African trypanosomiasis” (Biochemical Pharmacology, 2010)
